Experimental findings from patent publication US5389687A, “Ring-substituted 2-amino-1,2,3,4-tetra-hydronaphthalenes” (Eli Lilly and Company, priority 1991, dated 1995) are described below.

One experiment concerns the target T1, 5HT1a receptors (Rattus norvegicus, UniProt P19327).
T1 construct: synaptosomal membranes isolated from cerebral cortex; from tissue; host or cells: rat cerebral cortex, crude synaptosomal membranes (Male Sprague-Dawley rats from Harlan Industries)
T1 sequence (P19327 1-422): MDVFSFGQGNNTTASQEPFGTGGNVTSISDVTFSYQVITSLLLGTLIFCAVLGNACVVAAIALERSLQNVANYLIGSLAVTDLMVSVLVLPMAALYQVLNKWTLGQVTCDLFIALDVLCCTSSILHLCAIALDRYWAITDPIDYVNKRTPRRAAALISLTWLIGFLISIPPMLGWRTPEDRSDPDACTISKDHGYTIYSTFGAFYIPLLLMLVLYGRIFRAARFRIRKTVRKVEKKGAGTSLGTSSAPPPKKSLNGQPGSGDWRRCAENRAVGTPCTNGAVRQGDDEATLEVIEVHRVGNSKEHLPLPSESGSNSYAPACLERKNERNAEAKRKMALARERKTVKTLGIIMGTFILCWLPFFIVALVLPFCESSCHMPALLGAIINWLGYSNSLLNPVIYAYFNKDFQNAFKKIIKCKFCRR
The experiment in a line: Binding at 5HT1a receptors in vitro (inhibition of 3H-8-OH-DPAT binding to synaptosomal membranes from cerebral cortex). Also noted: species or system Male Sprague-Dawley rats. The following applies: 0.4 nM 3H-8-OH-DPAT, 37° C., 10 min, pH 7.4, several values in a cell are separate determinations. The method, then:
This general procedure is set forth in Wong et al., J. Neural Transm. 71:207-218 (1988).
Male Sprague-Dawley rats (110-150 g) from Harlan Industries (Cumberland, Ind.) were fed a Purina Chow ad libitum for at least 3 days before being used in the studies. Rats were killed by decapitation. The brains were rapidly removed, and the cerebral cortices were dissected out at 4° C.
Brain tissues were homogenized in 0.32 M sucrose. After centrifugation at 1000×g for 10 min and then at 17000×g for 20 min, a crude synaptosomal fraction was sedimented. The pellet was suspended in 100 vol of 50 mM Tris-HCl, pH 7.4, incubated at 37° C. for 10 min, and centrifuged at 50000×g for 10 min. The process was repeated and the final pellet was suspended in ice-chilled 50 mM Tris-HCl, pH 7.4. By the radio-ligand binding method, sites specifically labeled by tritiated 8-hydroxy-2-dipropylamino-1,2,3,4-tetrahydronaphthalene ([…]) have been identified as 5HT-1a receptors.
Binding of (^3 H-8-OH-DPAT) was performed according to the previously described method [Wong et al., J. Neural Transm. 64:251-269 (1985)]. Briefly, synaptosomal membranes isolated from cerebral cortex were incubated at 37° C. for 10 min. in 2 ml of 50 mM Tris-HCl, pH 7.4; 10 μM pargyline; 0.6 mM ascorbic acid; and 0.4 nM […]. Binding was terminated by filtering samples under reduced pressure through glass fiber (GFB) filters. The filters were washed twice with 5 ml of ice cold buffer and placed in scintillation vials with 10 ml of PCS (Amersham/Searle) scintillation fluid. Radioactivity was measured with a liquid scintillation spectrometer. Unlabeled 8-OH-DPAT at 10 μM was also included in separate samples to establish non-specific binding. Specific binding of ^3 H-8-OH-DPAT is defined as the difference of radioactivity bound in the absence and in the presence of 10 μM unlabeled 8-OH-DPAT.

Experiment [1] deals with conscious spontaneous hypertensive rats (SHR). As to the kind of experiment: Effect on blood pressure after i.v. administration to conscious SHR. In kind it is in vivo. The conditions noted are these: Rattus norvegicus, iv, i.v., conscious SHR, read-out: Blood Pressure ED25 (i.v. dose required to decrease pressure 25%). Here is the method: (§1) The compounds of this invention are also effective in reducing blood pressure. The blood pressure lowering effect of the compounds of this invention was determined in conscious spontaneous hypertensive rats (SHR; 325-425 g). The rats were anesthetized with halothane (2% in nitrous oxide and oxygen) and were implanted with femoral arterial and venous catheters. The tips of arterial and venous catheters-were positioned in the abdominal aorta below the renal arteries and lower abdominal vena cava, respectively. The catheters were routed subcutaneously to an exit point at the base of the skull and then through a small leather harness fastened around the forequarters of each animal. The animals were allowed a 3- to 4-day recovery period after surgery. On the day before an experiment, each rat was conditioned to the experimental surroundings for 6 hours. On the day of the experiment, the harness on the back of each animal was connected to a spring tether through which arterial and venous extension tubing was routed. The other end of the tubing was connected to a water tight swivel. This system permitted direct recording of blood pressure in conscious free moving animals. Mean arterial blood pressure was measured via a Statham strain gauge transducer (P23DB, Statham Instruments, Oxnard, Calif.) and recorded on a multichannel oscillograph (Beckman Model R611, Beckman Instruments, Palo Alto, Calif.). A minimum 30-minute equilibration period was observed prior to the experimental protocol during which time the animals preened and blood pressure was quite labile. Afterward, the animals appeared to sleep and pressure was stable. Following a control blood pressure measurement, rats were dosed with the compound or vehicle i.v., and pressure was monitored at various time intervals thereafter.
(§2) ^1 Standard protocol recorded the blood pressure and heart rate
(§3) responses after 0.3, 1.0 and 3.0 mg/kg i.v. Dose response curves were
(§4) plotted using the % change in pressure from pretreatment control values a
(§5) 15 and 30 minutes after treatment.
(§6) Corr = correlation coefficient for the linear relationship between the lo
(§7) dose(s) and % change (y) in pressure. Values of 1.0 = perfect correlation
(§8) Pos = Positive slope of dose response
ED25 = i.v. dose required to decrease pressure 25%

For experiment [2] the test system is unchanged. As to the kind of experiment: Effect on heart rate after i.v. administration to conscious SHR. Format: in vivo. The conditions noted are these: i.v., conscious SHR; for ED15: Rattus norvegicus, iv, read-out: Heart Rate ED15. The method, then: as §1, §2, §3, §4, §5, §6, §7, §8
HR Index = ED15 for Heart Rate divided by ED25 for Blood

The mark [3] stands for this setting: 0.25 h, 15 min. after treatment.

Where “and” joins values, the source holds several entries; their conditions need not be identical. Identical values can stand only once. Like-named read-outs stand apart in the source and are kept apart here.

On to `CCN(C)C1CCc2cccc(Cl)c2C1` (centres unmarked) [Example 13, 2-Methylethylamino-8-chloro-1,2,3,4-tetrahydronaphthalene], for which the IC50 at 5HT1a receptors (read-out: IC50 5HT1a) was found to be 120 nM. Besides, the ED25 turned out to be 0.7 mg/kg in experiment [1] (setting [3]) and 0.9 mg/kg in experiment [1] (0.5 h, 30 min. after treatment). In addition, the figures for the “HR Index (ED15 for Heart Rate divided by ED25 for Blood Pressure)” value in experiment [2] (15 min. after treatment) and in experiment [2] (30 min. after treatment) were 0.69 and 0.70, respectively. Besides, the ED15 in experiment [2] (setting [3]) was 0.48 mg/kg; in experiment [2] (0.5 h, 30 min. after treatment) it was 0.63 mg/kg.
In the case of `CCCN(CCC)C1CCc2cccc(C(N)=O)c2C1` (centres unmarked) [Example 16, 2-Di-n-propylamino-8-carboxamido-1,2,3,4-tetrahydronaphthalene], the IC50 on 5HT1a receptors (IC50 5HT1a) is 7.1 nM and 9 nM and 6.1 nM and 5.8 nM. In addition, the ED25 in experiment [1] (setting [3]) was determined as 4.2 mg/kg; in experiment [1] (0.5 h, 30 min. after treatment), 5.7 mg/kg. Besides, the “HR Index (ED15 for Heart Rate divided by ED25 for Blood Pressure)” value is given as 0.35 in experiment [2] (15 min. after treatment) and 0.51 in experiment [2] (30 min. after treatment). In addition, the ED15 came out at 1.5 mg/kg in experiment [2] (setting [3]) and 2.9 mg/kg in experiment [2] (0.5 h, 30 min. after treatment).

Broadly, the IC50 is the concentration needed to halve the response being measured.
